Measurements published in PMC3199867, “Targeting surface nucleolin with multivalent HB-19 and related Nucant pseudopeptides results in distinct inhibitory mechanisms depending on the malignant tumor cell type” (BMC Cancer, 2011).

Key:
[1] = tested on: HuT 78; assay: Cell death (trypan blue uptake); type: cell-based, human; settings: HuT 78, freshly passaged; N6 or N7 20 μM; trypan blue uptake; mean of at least 2 independent experiments
Method: Human breast (MDA-MB-231, MDA-MB-435 [37]), prostate (LNCaP, from American Type Culture Collection, ATCC, Rockville, MD), and cervical (HeLa) epithelial cancer cells were grown in DMEM-glutamax medium (Gibco Invitrogen, Cergy-Pontoise, France) containing GlutaMAX™, 4.5 g/l glucose and supplemented with 10% heat-inactivated (56°C for 30 min) fetal bovine serum (FBS; Hyclone, Thermo Fisher Scientific, Inc). Human SW480 cells are derived from a grade 3-4 colon carcinoma, while the highly metastatic counterpart SW620 is established from the lymph node of a person. Both SW480 and SW620 cells (obtained from Francis Raul, IRCAD) are highly tumorigenic in nude mice. They were cultured in D-MEM, 10% FCS. The murine melanoma TIII cell line was obtained from Armelle Prévost-Blondel. Murine T29 lymphoma cells, obtained from Philippe Kastner (CNRS, Strasbourg), have been established from Ik^L/L tumors from mice carrying a hypomorphic mutation (Ik^L/L) in the Ikaros gene encoding a transcription factor that regulates lymphocyte differentiation, and acts also as a tumor suppressor in T lymphocytes. The T29 cells were cultured in RPMI medium containing 25 mM Hepes pH 7.6, 1 mM sodium pyruvate, and 10% FCS. Human leukemia cell lines, Jurkat (acute T cell leukemia), HuT 78 (cutaneous T lymphocyte), RAJI (Burkitt lymphoma), and HL60 (promyelocytic leukemia) were cultured in RPMI-1640 medium (Gibco) containing GlutaMAX™, and supplemented with 10% heat-inactivated FBS as described before. The wild-type Chinese hamster ovary cell line (CHO K1) was purchased from American Type Culture Collection (ATCC; Rockville, MD). The CHO LRP1-null cell line (CHO-13-5-1) was kindly provided by D. Strickland [47]. They were cultured in Ham's F12K medium. All cells were cultured with 10% (v/v) heat inactivated (56°C, 30 min) fetal bovine serum (FBS) (Roche Molecular Biochemicals, Indianapolis, IN) and 50 international units/mL penicillin-streptomycin (Invitrogen). Cell death was monitored conveniently by uptake of the trypan blue dye due to plasma membrane permeability of dying and/or dead cells. […]

[2] = tested on: SW480; assay: Cell growth / proliferation (cell number); type: cell-based, human; settings: for Number of cells / % inhibition: counted seven days after seeding; for Number of cells: control 1,500,000; for % Growth inhibition After 3 days: SW480, N6 or N7 20 μM, viable cell number vs untreated control, mean of at least 2 independent experiments
Method: (§1) Human breast (MDA-MB-231, MDA-MB-435 [37]), prostate (LNCaP, from American Type Culture Collection, ATCC, Rockville, MD), and cervical (HeLa) epithelial cancer cells were grown in DMEM-glutamax medium (Gibco Invitrogen, Cergy-Pontoise, France) containing GlutaMAX™, 4.5 g/l glucose and supplemented with 10% heat-inactivated (56°C for 30 min) fetal bovine serum (FBS; Hyclone, Thermo Fisher Scientific, Inc). Human SW480 cells are derived from a grade 3-4 colon carcinoma, while the highly metastatic counterpart SW620 is established from the lymph node of a person. Both SW480 and SW620 cells (obtained from Francis Raul, IRCAD) are highly tumorigenic in nude mice. They were cultured in D-MEM, 10% FCS. The murine melanoma TIII cell line was obtained from Armelle Prévost-Blondel. Murine T29 lymphoma cells, obtained from Philippe Kastner (CNRS, Strasbourg), have been established from Ik^L/L tumors from mice carrying a hypomorphic mutation (Ik^L/L) in the Ikaros gene encoding a transcription factor that regulates lymphocyte differentiation, and acts also as a tumor suppressor in T lymphocytes. The T29 cells were cultured in RPMI medium containing 25 mM Hepes pH 7.6, 1 mM sodium pyruvate, and 10% FCS. Human leukemia cell lines, Jurkat (acute T cell leukemia), HuT 78 (cutaneous T lymphocyte), RAJI (Burkitt lymphoma), and HL60 (promyelocytic leukemia) were cultured in RPMI-1640 medium (Gibco) containing GlutaMAX™, and supplemented with 10% heat-inactivated FBS as described before. The wild-type Chinese hamster ovary cell line (CHO K1) was purchased from American Type Culture Collection (ATCC; Rockville, MD). The CHO LRP1-null cell line (CHO-13-5-1) was kindly provided by D. Strickland [47]. They were cultured in Ham's F12K medium. All cells were cultured with 10% (v/v) heat inactivated (56°C, 30 min) fetal bovine serum (FBS) (Roche Molecular Biochemicals, Indianapolis, IN) and 50 international units/mL penicillin-streptomycin (Invitrogen). Cell death was monitored conveniently by uptake of the trypan blue dye due to plasma membrane permeability of dying and/or dead cells.

[3] = tested on: SW620; assay: Cell growth / proliferation (cell number); type: cell-based, human; settings: for Number of cells / % inhibition: counted seven days after seeding; for Number of cells: control 1,800,000; for % Growth inhibition After 3 days: SW620, N6 or N7 20 μM, viable cell number vs untreated control, mean of at least 2 independent experiments
Method: as §1

[4] = tested on: T29; assay: Cell growth / multiplication (viable cell number); type: cell-based, murine; settings: for % Growth inhibition After 3 days: T29, N6 or N7 20 μM, viable cell number vs untreated control, mean of at least 2 independent experiments; for IC50: T29 cells, 0-20 μM, number of viable cells at 3 days post-treatment, read-out: Cell number: IC50 72 hours post-passage; for multiplication index of cells at day 3 compared to day 0: T29 seeded at 150,000 cells/ml, 10 μM (hexavalent), triplicate, control 17.5-fold
Method: as §1
Figure 7 HB-19 and related multivalent Nucant pseudopeptides induce cell death associated with internucleosomal DNA fragmentation. A. Inhibition of cell multiplication by HB-19 and related multivalent Nucant pseudopeptides. […] Cell cultures (in triplicate) were monitored for viable cell number daily for 3 days. The histograms show the mean number of cells/ml ± SD of triplicate samples. The multiplication index of cells at day 3 compared to day 0 (the day of seeding) is given at the top of histogram. At 3 days post passage of T29 cells, the cell multiplication index of cells is 17.5-fold compared to 8.9-, 7.2-, 2.2-, and 1.7-fold in the presence of treatment with HB-19, N3, N6, and N7, respectively. B. N7 inhibits T29 cell multiplication in a dose dependent manner. T29 cells seeded at 100,000/ml in 2 ml in the absence (0 μM) or presence of N7 at various concentrations 2.5, 5, 10 and 20 μM were cultured for 3 days and the number of viable cells was determined at day 1, 2, and 3 post-seeding. The ordinate gives the cell number/ml (the mean of 2 samples) in each culture at day 1, 2, and 3 post-seeding. C. Partial cleavage of surface/cytoplasmic nucleolin. T29 cells were cultured for 45 min with 0 (for control; lanes C), 2 and 10 μM of N6 before preparation of cytoplasmic (that contains both surface and cytoplasmic nucleolin) and nuclear extract and analysis by immunoblotting using rabbit polyclonal antibodies that are directed against the first 26 (panel anti-Nt Ab) and the last 16 amino acids (panel anti-Ct Ab) of human nucleolin, respectively. The nuclear extracts were analyzed by immunoblotting using anti-Nt Ab (Methods). […]

| Substance | % Cell death After 24 hours [1] | Number of cells ([2]; SW480, 10 μM added once 5 hours after seeding (20,000 cells/ml, 2 ml)) | % inhibition ([2]; SW480, 10 μM added once 5 hours after seeding) | Number of cells ([2]; SW480, 20 μM added once 5 hours after seeding (20,000 cells/ml, 2 ml)) | % inhibition ([2]; SW480, 20 μM added once 5 hours after seeding) | % Growth inhibition After 3 days [2] | Number of cells ([3]; SW620, 10 μM added once 5 hours after seeding (20,000 cells/ml, 2 ml)) | % inhibition ([3]; SW620, 10 μM added once 5 hours after seeding) | Number of cells ([3]; SW620, 20 μM added once 5 hours after seeding (20,000 cells/ml, 2 ml)) | % inhibition ([3]; SW620, 20 μM added once 5 hours after seeding) | % Growth inhibition After 3 days [3] | % Growth inhibition After 3 days [4] | IC50 [4] | multiplication index of cells at day 3 compared to day 0 [4] |
| --- | --- | --- | --- | --- | --- | --- | --- | --- | --- | --- | --- | --- | --- | --- |
| Ac-KAKPGKAKPGKAKPG-NH2 [Nucant N7, Presents hexavalently the pseudo-tripeptide Lysψ(CH2N)-Pro-Arg coupled to a similar template as in HB-19] | 44% | 1,200,000 | 20% | 900,000 | 40% | 25% | 1,000,000 | 44% | 700,000 | 61% | 45% | 85% | 8 µM | 1.7 fold |
| Ac-Lys-Aib-Gly-Lys-Aib-Gly-Lys-Aib-Gly-Lys-Aib-Gly-Lys-Aib-Gly-Lys-Aib-Gly-CONH2 [Nucant N6, Presents hexavalently the pseudo-tripeptide Lysψ(CH2N)-Pro-Arg coupled to the polypeptide template containing Aib] | 44% |  |  |  |  | 25% |  |  |  |  | 45% | 85% | 8 µM | 2.2 fold |
